“And” between values parts separate entries of the source, which are not always exact repeats. Equal values may be shown once. Read-outs that look alike come from different tables or passages of the source.

The test system of one data set is GFP-polyQ-HA. The experiment in a line: Degradation of expanded polyglutamine (GFP-polyQ-HA) in transfected H4 cells, anti-HA blot. The data set is classed as cell-based. On the procedure:
Large-scale accumulation of misfolded protein is a prominent feature of many neurodegenerative diseases. For example, the pathogenic mechanism of Huntington's disease is that a large amount of polyglutamine (polyQ) protein accumulates in the neurons and cannot be cleared away. Tests of polyQ elimination and degradation were used in this experiment to further determine the ability if the tested compounds to induce autophagy.
The compounds selected through screening were dissolved in DMSO and diluted in a stepwise manner in complete culture medium.

The test system of a further data set is LC3 II. In words: Western blot of LC3 II in H4-LC cells. The data set is classed as cell-based. The text has this:
The autophagosome marker LC3 used in the compound-screening platform was subjected to the foregoing processing in the cytosol. Generally when the new LC3 synthesized within the cell was processed, it became cytosolic soluble LC3 I with molecular weight 18 Kd. […] The quantity of LC3 II content reflects to a certain degree the autophagic activity of a cell. Therefore, by assaying the content of LC3 II in the cell by means of the Western blot method, it is possible to further reflect the effect of the compound on autophagy.
H4-LC cells at an appropriate density were inoculated onto a 6-well plate, which was treated with a compound for 4 hours, after which the cells were collected and lysed. The protein fraction was harvested and SDS-PAGE was performed. Following electrophoresis separation the proteins were transferred to a membrane, and immunoblot analysis was performed. The cytoskeleton protein, actin, was used as an internal control.

A further data set deals with FYVE-RFP. The experiment in a line: High-content analysis of FYVE-RFP fluorescence (PI(3)P level) in H4-FYVE cell line. It counts as cell-based. The text has this:
Class III PI(3)K Vps34 is a multifunctional protein. On the one hand, it catalyzes the phosphorylation of PI to generate PI(3)P and is of key importance in the endocytic and autophagosome membrane transport processes. At the same time, a compound formed from Vps34/beclin1 is involved in the regulation of autophagy initiation signaling. Therefore, while the autophagy process is taking place, the level of PtdIns(3)P should not be expected to decrease to a significant extent. A FYVE domain is a protein structure domain composed of approximately 70 amino acid residues and containing a zinc finger protein structure; it can bind specifically with PI(3)P. Generally, PI(3)P recruits proteins containing a FYVE domain in order to bind to the membrane of cellular organelles, and participate in protein trafficking and similar processes.
H4 cells were transfected with the fusion protein FYVP-red fluorescent protein (FYVE-RFP). After transfection, the cells were screened in order to obtain a suitable H4-FYVE cell line to be used as a screening platform to perform high-volume screening of compounds, which thereby indirectly reflected the effect of the compound on autophagy. Compounds which reduced FYVE-RFP fluorescence intensity were eliminated. In this experiment, change in the intensity, fluorescence and distribution of the protein marker FYVE-RFP recruited by PI(3)P before and after treatment with the potential autophagy inducing compound was assayed by high-content microscopic analysis.
DMSO was used to dilute, dissolve, and prepare a compound at different concentrations with each concentration repeated three times. A 96-well plate was inoculated with H4-FYVE cells at an appropriate density and treated with the compound for 2, 4, and 8 hours, respectively. […] If a compound affected FYVE expression or distribution, then this would be embodied precisely in the image and in the size and intensity of fluorescent spots and other numerical values.

The test system of another data set is long-lived proteins. In words: Degradation of (3H) L-leucine labelled long-lived proteins in H4 cells. The note with it: relative to blank control. It counts as cell-based. The text has this: The process of autophagy is a protein degradation process, which primarily mediates the degradation of cellular organelles and long-lived proteins within the cell. Therefore, in the present experiment the detection of whether a compound promotes the degradation of long-lived proteins within the cell was used as an additional indicator of whether the tested compound induces autophagy.
DMSO was used to dilute, dissolve, and prepare a compound at different concentrations with each concentration repeated three times. A 96-well plate was inoculated with H4 cells at an appropriate density and treated with the compound for 2, 4, and 24 hours, respectively. […] One day prior to the experiment, cells were inoculated onto a 12-well plate at an appropriate density and cultured under normal conditions (DMEM +10% fetal calf serum). […] Then, a complete medium containing (3H) L-leucine was used to incubate the cells for 24 hours causing the cells to take in isotope-labeled leucine and undertake protein synthesis. After 24 hours, a complete culture medium was substituted and used to incubate the cells for 24 hours to degrade short-lived proteins. After the short-lived proteins had been degraded, a complete culture medium to which the compound had been added was substituted and used to incubate the cells. The radiation intensity of the culture medium was tested at 0, 1, 2, 4, and 24 hours, respectively. At 24 hours, the cells were collected and the intensity of the isotope within the cells was tested, and the percent of long-lived protein degradation relative to the blank control group at different times after the action of the compound was computed. Compounds that increased the degradation of long-lived proteins were selected by means oft-test.

Another data set deals with H4-LC3 cells. It counts as cell-based. The text has this:
H4 cells were transfected with the LC3-GFP fusion protein, thereby creating, screening, and yielding an H4-LC3 cell line as a screening platform in order to perform high-content screening of 480 known bioactive compounds (ICCB known bioactive library, BIOMOL), using the following method. DMSO was used to dilute, dissolve, and prepare a compound at different concentrations with each concentration repeated three times. A 96-well plate was inoculated with H4-LC3 cells at an appropriate density and treated for 24 hours with the compound. […] If a compound affected LC3 expression or distribution, then this would be embodied precisely in the image and in the size and intensity of fluorescent spots and the like numerical values. This experiment was repeated three times, and the 72 compounds for which LC3-GFP fluorescent intensity was more than 50% greater than that of the blank control group in the three experiments were selected for analysis. Based on the number of cells determined through counting, those compounds in which cell death exceeded 30% (in comparison with the control group) were eliminated. The remaining compounds were further studied as candidate molecules.

In data set [1] the test system is Ca2+-activated K+ channels. Particulars: 10-nM penitrem A; cited from earlier work.
Setting [2] is: H4 cells transfected with GFP-polyQ-HA, 24 hours, screening concentration and dilutions 1:2.5, 1:5, 1:10, FIG. 2.
The mark [3] stands for this setting: H4-LC cells, 4 hours, immunoblot, FIG. 1.

For the molecule `COC(=O)C1=C(C)NC(C)=C(C(=O)OCCN(C)Cc2ccccc2)C1c1cccc([N+](=O)[O-])c1.Cl` (centres unmarked) [Nicardipine], the polyQ degradation entry with GFP-polyQ-HA (setting [2]) is given as “increased polyQ degradation”. Also, in the data set on LC3 II (setting [3]), the “Increase of endogenous LC3 II / LC3 II/LC3 I percentage” value is “increase of endogenous LC3 II”. The “Relative fluorescent intensity of FYVE-RFP (%)” value is 132.05 ± 19.93% in the data set with FYVE-RFP (H4-FYVE cells, 2 h); 112.51 ± 10.09% in the data set with FYVE-RFP (H4-FYVE cells, 4 h); 104.77 ± 31.63% with FYVE-RFP (H4-FYVE cells, 8 h). Further, the “Percent relative degradation of long-lived proteins (%)” value (“Percent relative degradation … (%)” below) was 84.62 ± 4.48% in the data set with long-lived proteins (1 h), 126.59 ± 3.83% with long-lived proteins (2 h), 122.60 ± 7.70% with long-lived proteins (4 h) and 121.03 ± 13.43% in the data set on long-lived proteins (24 h).

On to `CCCCc1oc2ccccc2c1C(=O)c1cc(I)c(OCCN(CC)CC)c(I)c1.Cl` [Amiodarone], for which the polyQ degradation entry in the data set on GFP-polyQ-HA is “increased polyQ degradation”. In the data set on LC3 II (setting [3]), the “Increase of endogenous LC3 II / LC3 II/LC3 I percentage” value is listed as “increase of endogenous LC3 II”. Moreover, in the data set with FYVE-RFP, the “Relative fluorescent intensity of FYVE-RFP (%)” value is 92.50 ± 5.51% and 89.23 ± 3.47% and 83.45 ± 3.64%. For the same molecule, the “Percent relative degradation … (%)” value in the data set with long-lived proteins (1 h) is on record as 101.32 ± 5.95%; in the data set on long-lived proteins (2 h), 122.42 ± 9.71%; in the data set with long-lived proteins (4 h), 110.75 ± 3.68%; in the data set with long-lived proteins (24 h) it was 116.73 ± 5.54%.

As to `COC(=O)C1=C(C)NC(C)=C(C(=O)OCCCN2CCC(c3ccccc3)(c3ccccc3)CC2)C1c1cccc([N+](=O)[O-])c1.Cl` (centres unmarked) [Niguldipine], the polyQ degradation result with GFP-polyQ-HA is “increased polyQ degradation”. Also, the “Increase of endogenous LC3 II / LC3 II/LC3 I percentage” value in the data set with LC3 II is “increase of endogenous LC3 II”. Also, in the data set on H4-LC3 cells (human), the “Relative quantity of cells (%)” value came to 132.78 ± 18.11%. The “Relative fluorescent intensity of FYVE-RFP (%)” value in the data set on FYVE-RFP is 147.18 ± 25.39% and 148.26 ± 3.67% and 125.53 ± 2.84%. Also, the “Percent relative degradation … (%)” value in the data set on long-lived proteins (1 h) came to 71.65 ± 2.68%; in the data set with long-lived proteins (2 h) it was 107.42 ± 2.72%; in the data set on long-lived proteins (4 h), 105.68 ± 2.74%; with long-lived proteins (24 h) it was 117.85 ± 1.98%.

With `CN1CCN(CCCN2c3ccccc3Sc3ccc(C(F)(F)F)cc32)CC1` [Trifluoperazine], the polyQ degradation result in the data set with GFP-polyQ-HA (setting [2]) is “increased polyQ degradation”. For the same molecule, the “Increase of endogenous LC3 II / LC3 II/LC3 I percentage” value with LC3 II (setting [3]) is on record as “increase of endogenous LC3 II”. Further, the “Relative fluorescent intensity of FYVE-RFP (%)” value turned out to be 136.58 ± 15.74% in the data set with FYVE-RFP (H4-FYVE cells, 2 h); 111.52 ± 13.45% in the data set with FYVE-RFP (H4-FYVE cells, 4 h); 94.28 ± 2.87% in the data set with FYVE-RFP (H4-FYVE cells, 8 h). In addition, the “Percent relative degradation … (%)” value is 76.62 ± 2.32% with long-lived proteins (1 h), 105.60 ± 5.01% in the data set on long-lived proteins (2 h), 109.00 ± 5.22% with long-lived proteins (4 h) and 124.78 ± 2.05% in the data set on long-lived proteins (24 h).

As to `O=c1[nH]c2ccccc2n1C1CCN(CCCC(c2ccc(F)cc2)c2ccc(F)cc2)CC1` [Pimozide], the polyQ degradation result in the data set on GFP-polyQ-HA (setting [2]) is given as “increased polyQ degradation”. Also, the “Increase of endogenous LC3 II / LC3 II/LC3 I percentage” value with LC3 II (setting [3]) is reported as “increase of endogenous LC3 II”. For the same molecule, the “Relative fluorescent intensity of FYVE-RFP (%)” value with FYVE-RFP (H4-FYVE cells, 2 h) was determined as 94.42 ± 4.71%; with FYVE-RFP (H4-FYVE cells, 4 h), 103.96 ± 9.06%; in the data set on FYVE-RFP (H4-FYVE cells, 8 h), 73.64 ± 12.18%. Besides, the “Percent relative degradation … (%)” value with long-lived proteins (1 h) amounted to 129.13 ± 11.46%; in the data set on long-lived proteins (2 h), 155.80 ± 9.22%; in the data set on long-lived proteins (4 h), 152.01 ± 9.63%; in the data set on long-lived proteins (24 h) it was 162.47 ± 3.50%.

Consider `C=C(C)[C@H]1O[C@H]2CC[C@@]3(C)[C@@](O)(CC[C@H]4[C@@H]5OC(C)(C)[C@H]6C[C@@H]7C(=C)Cc8c(Cl)cc9[nH]c(c5c9c8[C@@]76O)[C@@]43C)[C@]23O[C@@H]3[C@H]1O` [Penitrem A], for which the “Blockage of Ca2+-activated K+ channels” value in data set [1] is 100%. Further, the polyQ degradation entry in the data set on GFP-polyQ-HA (setting [2]) is “increased polyQ degradation”. In addition, the “Increase of endogenous LC3 II / LC3 II/LC3 I percentage” value in the data set with LC3 II (setting [3]) is recorded as “increase of endogenous LC3 II”. For the same molecule, the “Destruction of H4 cells” value with H4-LC3 cells (H4 cells) is recorded as “does not destroy H4 cells”. In addition, the “Relative fluorescent intensity of FYVE-RFP (%)” value in the data set with FYVE-RFP (H4-FYVE cells, 2 h) is given as 121.40 ± 12.66%; with FYVE-RFP (H4-FYVE cells, 4 h), 87.41 ± 5.90%; in the data set on FYVE-RFP (H4-FYVE cells, 8 h), 72.71 ± 5.57%. Further, the “Percent relative degradation … (%)” value was 92.88 ± 2.83% in the data set with long-lived proteins (1 h), 126.09 ± 0.47% with long-lived proteins (2 h), 132.13 ± 10.01% in the data set on long-lived proteins (4 h) and 141.83 ± 1.25% with long-lived proteins (24 h).

These data come from patent publication US20120077705A1, “Methods for Identifying Autophagy Inducing Compounds” (President and Fellows of Harvard College, priority 2007, published 2012).
